Measurements from patent US20260325533A1, “CDK INHIBITOR COMPOUNDS” (ALEKSIA THERAPEUTICS, INC., priority 2023, published 2026).
Read-outs that look alike come from different tables or passages of the source.

Assays:
Format in all cases: biochemical
CDK6/CCND1 = CDK6/CCND1 (Homo sapiens, UniProt Q00534); test: CDK6 homogeneous time-resolved fluorescence (HTRF) kinase assay; settings: CDK6/CCND
Summary of the method: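 Assay conditions: HEPES buffer containing 10 mM MgCl2, 1 mM EGTA, 2 mM DTT, 0.01% Tween 20; 1 nM CDK6/CCND1, 50 nM peptide substrate, 1 mM ATP. Detection after 60 min reaction used 2 nM europium antibody with 340 nm excitation. Potency fitted from half-log series, 11 points.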

CDK1/CCNB1 = CDK1/CCNB1 (Homo sapiens, UniProt P06493); test: CDK1 homogeneous time-resolved fluorescence (HTRF) kinase assay; settings: CDK1/CCNB
Summary of the method: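 CDK1/CCNB1 0.5 nM + cpd, 20 min 23 °C; add 1 mM ATP, 50 nM ULight-4E-BP1 peptide, 60 min 23 °C; stop 10 mM EDTA; 2 nM Eu-Ab, 60 min; HTRF 665 nm. 11-pt half-log, top 10 μM typical; IC50.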

CDK4/CCND3 = CDK4/CCND3 (Homo sapiens, UniProt P11802); test: CDK4 homogeneous time-resolved fluorescence (HTRF) kinase assay; settings: CDK4/CCND
Summary of the method: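 TR-FRET read (665 nm, or 665/615 ratio) of 4E-BP1 Thr37/46 phosphorylation by 1.5 nM CDK4/CCND3 at 1 mM ATP, 50 nM ULight peptide, 1% DMSO. Reaction ran 60 min at 23 °C after 20 min compound–enzyme preincubation. IC50 from 11-point half-log dilutions, top 10 μM.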

CDK2/CCNE1 = CDK2/CCNE1 (Homo sapiens, UniProt P24941); test: CDK2 homogeneous time-resolved fluorescence (HTRF) kinase assay; settings: CDK2/CCNE
Summary of the method: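 An HTRF format measures CDK2/CCNE1 (3 nM) phosphorylating a 4E-BP1 Thr37/46 peptide at high (1 mM) ATP. Reactions run one hour at 23 °C, then EDTA-quenched and probed with Eu-labelled phospho-specific antibody.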

[1] = 25-250 nM marked x, read-out: CDK6/CCND IC50 25-250 nM
[2] = >250 nM marked x, read-out: CDK1/CCNB IC50 >250 nM
[3] = 25-250 nM marked x, read-out: CDK4/CCND IC50 25-250 nM
[4] = <25 nM, read-out: CDK2/CCNE IC50 <25 nM
[5] = >250 nM marked x, read-out: CDK6/CCND IC50 >250 nM
[6] = >250 nM marked x, read-out: CDK4/CCND IC50 >250 nM
[7] = 25-250 nM marked x, read-out: CDK2/CCNE IC50 25-250 nM

Sequence of CDK4/CCND3 (P11802 whole entry): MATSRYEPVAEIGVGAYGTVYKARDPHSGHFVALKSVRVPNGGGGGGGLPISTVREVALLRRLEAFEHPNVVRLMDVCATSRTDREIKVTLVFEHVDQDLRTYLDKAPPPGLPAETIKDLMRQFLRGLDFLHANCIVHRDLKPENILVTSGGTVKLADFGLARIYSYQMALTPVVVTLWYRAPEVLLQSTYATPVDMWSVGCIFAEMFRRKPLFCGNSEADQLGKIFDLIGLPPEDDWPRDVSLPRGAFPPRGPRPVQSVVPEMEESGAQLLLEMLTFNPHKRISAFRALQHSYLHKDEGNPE
Sequence of CDK4/CCND3 (P30281 whole entry partner): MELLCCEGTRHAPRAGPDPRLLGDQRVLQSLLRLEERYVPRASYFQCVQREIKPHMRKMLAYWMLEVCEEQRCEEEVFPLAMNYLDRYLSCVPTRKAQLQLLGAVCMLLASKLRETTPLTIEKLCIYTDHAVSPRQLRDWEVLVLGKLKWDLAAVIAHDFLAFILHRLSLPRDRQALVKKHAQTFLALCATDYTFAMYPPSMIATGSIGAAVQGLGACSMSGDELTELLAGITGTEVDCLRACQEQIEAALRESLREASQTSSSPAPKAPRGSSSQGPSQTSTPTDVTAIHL
Sequence of CDK1/CCNB1 (P06493 whole entry): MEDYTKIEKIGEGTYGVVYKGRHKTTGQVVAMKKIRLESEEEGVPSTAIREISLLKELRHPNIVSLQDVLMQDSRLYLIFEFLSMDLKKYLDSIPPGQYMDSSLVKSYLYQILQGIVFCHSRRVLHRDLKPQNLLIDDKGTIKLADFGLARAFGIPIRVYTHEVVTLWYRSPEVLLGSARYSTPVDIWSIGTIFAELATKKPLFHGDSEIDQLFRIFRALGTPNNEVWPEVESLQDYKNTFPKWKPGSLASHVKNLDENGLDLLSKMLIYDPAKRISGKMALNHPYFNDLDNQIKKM
Sequence of CDK1/CCNB1 (P14635 whole entry partner): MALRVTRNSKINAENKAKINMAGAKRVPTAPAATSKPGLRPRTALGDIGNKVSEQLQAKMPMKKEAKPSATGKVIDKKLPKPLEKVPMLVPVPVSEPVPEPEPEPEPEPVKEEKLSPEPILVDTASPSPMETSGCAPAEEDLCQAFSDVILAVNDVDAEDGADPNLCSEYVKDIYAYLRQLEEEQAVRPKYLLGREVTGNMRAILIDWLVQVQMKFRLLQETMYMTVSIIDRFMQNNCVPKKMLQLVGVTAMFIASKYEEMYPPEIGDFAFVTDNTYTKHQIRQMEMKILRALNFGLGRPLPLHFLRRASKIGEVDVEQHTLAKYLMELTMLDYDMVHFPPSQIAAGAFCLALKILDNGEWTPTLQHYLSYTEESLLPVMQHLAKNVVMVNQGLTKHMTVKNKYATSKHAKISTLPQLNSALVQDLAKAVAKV
Sequence of CDK6/CCND1 (Q00534 whole entry): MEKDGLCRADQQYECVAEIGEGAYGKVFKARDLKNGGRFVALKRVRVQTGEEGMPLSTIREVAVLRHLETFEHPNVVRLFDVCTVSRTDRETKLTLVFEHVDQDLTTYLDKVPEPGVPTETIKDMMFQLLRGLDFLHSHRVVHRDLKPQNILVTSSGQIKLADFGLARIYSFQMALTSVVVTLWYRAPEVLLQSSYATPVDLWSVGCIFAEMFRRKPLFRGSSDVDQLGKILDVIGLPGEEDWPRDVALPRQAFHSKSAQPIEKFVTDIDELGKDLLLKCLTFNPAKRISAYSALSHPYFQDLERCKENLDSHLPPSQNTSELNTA
Sequence of CDK6/CCND1 (P24385 whole entry partner): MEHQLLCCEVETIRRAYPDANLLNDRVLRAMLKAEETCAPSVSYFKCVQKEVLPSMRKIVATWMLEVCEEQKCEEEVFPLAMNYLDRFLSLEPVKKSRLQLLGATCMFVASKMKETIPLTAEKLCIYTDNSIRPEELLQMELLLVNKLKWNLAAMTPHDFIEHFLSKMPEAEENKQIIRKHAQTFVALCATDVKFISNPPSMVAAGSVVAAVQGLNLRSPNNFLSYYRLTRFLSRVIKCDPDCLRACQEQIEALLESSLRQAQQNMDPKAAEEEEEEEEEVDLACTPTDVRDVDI

In the case of `O=C(O)c1ccc(Nc2cc3c(C4=CCCCC4)nccc3cn2)cc1` [Ex 253, 4-((5-(cyclohex-1-en-1-yl)-2,6-naphthyridin-3-yl)amino)benzoic acid], the IC50 (CDK6/CCND1; [1]) is reported as 25 to 250 nM, the IC50 (CDK1/CCNB1; [2]) is reported as > 250 nM and the IC50 (CDK4/CCND3; [3]) is reported as 25 to 250 nM. For the same molecule, the IC50 (CDK2/CCNE1; [4]) was < 25 nM.
In the case of `Cc1c(-c2nccc3cnc(Nc4ccc(S(C)(=O)=O)cc4)cc23)ccc2c1cnn2CCO` [Ex 267, 2-(4-methyl-5-(7-((4-(methylsulfonyl)phenyl)amino)-2,6-naphthyridin-1-yl)-1H-indazol-1-yl)ethan-1-ol], the IC50 (CDK6/CCND1; [1]) is reported as 25 to 250 nM, the IC50 (CDK1/CCNB1; 25-250 nM marked x, read-out: CDK1/CCNB IC50 25-250 nM) is reported as 25 to 250 nM and the IC50 (CDK4/CCND3; [3]) is reported as 25 to 250 nM. The IC50 (CDK2/CCNE1; [4]) was < 25 nM.
For `CCC1(CC)C(=O)Nc2cc(C#Cc3nccc4cnc(Nc5ccc(S(=O)(=O)C6CC(F)(F)C6)cc5OC)cc34)ccc21` [Ex 277, 6-((7-((4-((3,3-difluorocyclobutyl)sulfonyl)-2-methoxyphenyl)amino)-2,6-naphthyridin-1-yl)ethynyl)-3,3-diethylindolin-2-one], the IC50 (CDK6/CCND1; [5]) was > 250 nM, the IC50 (CDK1/CCNB1; [2]) was > 250 nM and the IC50 (CDK4/CCND3; [6]) was > 250 nM. The IC50 (CDK2/CCNE1; [7]) was 25 to 250 nM.
`O=C1Nc2cc(C#Cc3nccc4cnc(Nc5ccc(S(=O)(=O)CC(F)(F)F)cc5)cc34)ccc2C12CC2` [Ex 282, 6'-((7-((4-((2,2,2-trifluoroethyl)sulfonyl)phenyl)amino)-2,6-naphthyridin-1-yl)ethynyl)spiro[cyclopropane-1,3'-indolin]-2'-one] was tested, and the IC50 (CDK6/CCND1; [5]) was > 250 nM, the IC50 (CDK1/CCNB1; [2]) was > 250 nM and the IC50 (CDK4/CCND3; [6]) was > 250 nM. For the same molecule, the IC50 (CDK2/CCNE1; [4]) was < 25 nM.
With `CCC1(CC)C(=O)Nc2cc(C#Cc3nccc4cnc(Nc5ccc(S(=O)(=O)CC(F)(F)F)cc5F)cc34)ccc21` [Ex 283, 3,3-diethyl-6-((7-((2-fluoro-4-((2,2,2-trifluoroethyl)sulfonyl)phenyl)amino)-2,6-naphthyridin-1-yl)ethynyl)indolin-2-one] the IC50 (CDK6/CCND1; [5]) was > 250 nM, the IC50 (CDK1/CCNB1; [2]) was > 250 nM and the IC50 (CDK4/CCND3; [6]) was > 250 nM. The IC50 (CDK2/CCNE1; >250 nM marked x, read-out: CDK2/CCNE IC50 >250 nM) was > 250 nM.
`CCC1(CC)C(=O)Nc2cc(C#Cc3nccc4cnc(Nc5ccc(S(=O)(=O)CC(F)(F)F)cc5C)cc34)ccc21` [Ex 286, 3,3-diethyl-6-((7-((2-methyl-4-((2,2,2-trifluoroethyl)sulfonyl)phenyl)amino)-2,6-naphthyridin-1-yl)ethynyl)indolin-2-one] was tested, and the IC50 (CDK6/CCND1; [5]) was > 250 nM, the IC50 (CDK1/CCNB1; [2]) was > 250 nM and the IC50 (CDK4/CCND3; [6]) was > 250 nM. It also gave an IC50 (CDK2/CCNE1; [7]) of 25 to 250 nM.
In the case of `CC1(C)C(=O)Nc2cc(C#Cc3nccc4cnc(Nc5ccc(S(C)(=O)=O)cc5C(F)F)cc34)ccc21` [Ex 312, 6-((7-((2-(difluoromethyl)-4-(methylsulfonyl)phenyl)amino)-2,6-naphthyridin-1-yl)ethynyl)-3,3-dimethylindolin-2-one], the IC50 (CDK6/CCND1; [5]) is reported as > 250 nM, the IC50 (CDK1/CCNB1; [2]) is reported as > 250 nM and the IC50 (CDK4/CCND3; [6]) is reported as > 250 nM. The IC50 (CDK2/CCNE1; [4]) was < 25 nM.
With `CCC1(CC)C(=O)Nc2cc(C#Cc3nccc4cnc(Nc5ccc(S(=O)(=O)C(C)C)cc5OC)cc34)ccc21` [Ex 338, 3,3-diethyl-6-((7-((4-(isopropylsulfonyl)-2-methoxyphenyl)amino)-2,6-naphthyridin-1-yl)ethynyl)indolin-2-one] the IC50 (CDK6/CCND1; [5]) was > 250 nM, the IC50 (CDK1/CCNB1; [2]) was > 250 nM and the IC50 (CDK4/CCND3; [6]) was > 250 nM. It also gave an IC50 (CDK2/CCNE1; [7]) of 25 to 250 nM.
`Cc1cc(S(C)(=O)=O)ccc1Nc1cc2c(C#Cc3cc4c(cc3F)C(C)(C)C(=O)N4)nccc2cn1` [Ex 342, 5-fluoro-3,3-dimethyl-6-((7-((2-methyl-4-(methylsulfonyl)phenyl)amino)-2,6-naphthyridin-1-yl)ethynyl)indolin-2-one] was tested, and the IC50 (CDK6/CCND1; [5]) was > 250 nM, the IC50 (CDK1/CCNB1; [2]) was > 250 nM and the IC50 (CDK4/CCND3; [6]) was > 250 nM. For the same molecule, the IC50 (CDK2/CCNE1; [4]) was < 25 nM.
